Test results as given in US8246985B2, “Pharmaceutical composition comprising lipase inhibitor and lipophilic oil absorbent and oral formulation prepared therefrom” (Amorepacific Corporation, priority 2006, dated 2012).

Assay: Oil adsorption test for selection of lipophilic oil absorbent
Assay type: physicochemical
Details: for Amount of remained oil: 1.5 g substance (0.1 g hydroxypropyl methyl cellulose and polyethylene oxide, 0.5 g light anhydrous silicic acid), 5 g soybean oil, 15 g purified water, mixed 2 min, centrifuged 3,000 g 5 min, weight of supernatant oil layer; for Adsorption (%): ratio of oil adsorbed (dispersants: oil within dispersing layer) to total oil amount (5 g)
Experimental: In order to select a lipophilic oil absorbent that is capable of adsorbing unabsorbed free oil by the action of a lipase inhibitor, various substances known as a dispersant or adsorbent were subjected to an adsorption test as follows. 1.5 g of each ingredient listed in Table 1 (excepted for 0.1 g of each of hydroxypropyl methyl cellulose and polyethylene oxide, 0.5 g of light anhydrous silicic acid), 5 g of soybean oil and 15 g of purified water were mixed in a test tube for 2 minutes and centrifuged at 3,000 g for 5 minutes. After separating the supernatant oil layer, the oil adsorption degree of each substance was determined.
In table 1, the amount of oil remained was measured from the weight of the oil layer after adsorption, and the adsorption (%) means the ratio of the amount of oil adsorbed (which is obtained by subtracting the remained oil amount from the total oil amount) to the total amount of oil. On using a dispersant, the amount of oil remained means the oil amount of a supernatant excepting oil dispersed layer, and the adsorption (%) means the ratio of the oil amount within the dispersing layer to the total oil amount (5 g).

Amount of remained oil [g] | Adsorption (%) (sulfate) | Adsorption (%) | Molecule
0.00 | 100 | – | CCCCCCCCCCCCOS(=O)(=O)[O-].[Na+] [Sodium lauryl sulfate]
2.79 | – | 2.79 | Polyoxyethylene(2) cetyl ether
0.17 | – | 1.13 | Sorbitan trioleate
